This passage reports melting point results from a melting point compilation (Tetko et al.).

Structures are written as SMILES.

The term melting point denotes the temperature, or range, at which the solid turns liquid.

In the case of `O=c1c2ccccc2[nH]c2ccccc12`, the melting point lay within 360 to 362 °C.
In the case of `O=C(O)C=CC(=O)C=CC(=O)O` it was 300 °C; in that of `N#Cc1cccc(N2CCCC2)c1`, 84 to 85 °C; in that of `OC12CCCCC1c1ccccc12` (configuration not stated), 112 °C.
The figure for `Cc1cc(O)c(Cc2c(O)cc(C)oc2=O)c(=O)o1` is 248 to 250 °C; for `COC(=O)c1cc(C(=O)O)cc([N+](=O)[O-])c1` it is 183 °C; for `O=C(O)C1c2ccccc2Oc2ccccc21` it is 217 °C.
In the case of `CC12CCC3C(=CCc4cc(O)ccc43)C1CCC2=O` (configuration not stated) it was 239 °C; in that of `O=C(O)CN1CCOCCOCCN(CC(=O)O)CCOCCOCC1`, 173 to 175 °C.
Turning to `CCCCCOc1ccc(-c2ccc(C#N)cc2)cc1`, the melting point amounted to 48 °C.
On to `CC(C)(CCCC(C)(C)C(=O)O)C(=O)O`, for which the melting point was in the range of 169 to 171 °C.
The figure for `O=C(O)Cc1ccc(Oc2ccccc2)cc1` is 79 to 81 °C.
The figure for `COC1=CC(=O)C2(C)CCC1C2(C)C` (configuration not stated) is 55 °C.
The molecule `CCOC(=O)C(C)=P(c1ccccc1)(c1ccccc1)c1ccccc1` registered a melting point of 157 to 159 °C.
Regarding `CC1=C(C(=O)OCc2ccccc2)C(c2ccccc2)NC(=S)N1` (configuration not stated), the melting point was 175 °C.
Consider `CC(=O)c1c(C)cn(C)c1C`, for which the melting point fell in the range of 81 to 82 °C.
The figure for `Clc1ncccc1I` is 95 °C; for `CC(C)(C)OC(=O)C1CC(=O)CN1C(=O)OC(C)(C)C` (configuration not stated) it is 66 °C; for `C=Cc1cccc(C=C)c1` it is -52.3 °C.
In the case of `O=Cc1c(O)cc(Cl)cc1Cl` it was 52 °C; in that of `CC(C)(CCC(=O)O)C(=O)O`, 84 °C.
In the case of `CN(C)Cc1c[nH]c2ccccc12` it was 138 °C.
Consider `CCCC1COC(c2ccc(C#N)cc2)OC1` (configuration not stated), for which the melting point came out at 57.5 °C.
The figure for `COc1cc(C)c2c(c1)CCC(=Cc1ccccc1)C2=O` is 96 to 97 °C.
The molecule `Cc1ccc2nc3c(ccc4ccccc43)c(C)c2c1` displayed a melting point of 159 °C.
In the case of `Nc1ccc(Br)c([N+](=O)[O-])c1` it was 128 to 132 °C; in that of `CCCCCc1ccc(O)cc1O`, 72.5 °C.
The figure for `COc1ccccc1Oc1ccccc1OC` is 79.5 °C.
The figure for `CCN(CC)C(=O)CC(C)=O` is -73 °C; for `CC(CCc1ccc(CCC(C)OC(=O)Nc2ccccc2)cc1)OC(=O)Nc1ccccc1` (configuration not stated) it is 165 °C.
Regarding `C#Cc1cccnc1`, the melting point stood at 40 °C.
In the case of `OCCCCCCC(F)(F)C(F)(F)C(F)(F)C(F)(F)C(F)(F)C(F)(F)C(F)(F)C(F)(F)F` it was 56 °C.
In the case of `CCCCCCCCCCCS` it was -3 °C; in that of `COC(=O)CC(=O)c1ccc(C(=O)OC)cc1`, 81 to 86 °C; in that of `N#CCc1ccc(C(F)(F)F)cc1[N+](=O)[O-]`, 40 °C.
On to `O=C1NN(c2ccccc2)C(=O)C1=Cc1ccc(Cl)cc1`, for which the melting point was 322 °C.
In the case of `CON(C(=O)c1cc(C)oc1C)C1CCCCC1`, the melting point amounted to 33 °C.
`COC(=O)C=Cc1ccc(Cl)cc1` gave a melting point of 76 °C.
In the case of `CC1=CC(=O)NS(=O)(=O)O1` it was 123 °C; in that of `OCCN(CCO)C(CO)(CO)CO`, 104 °C.
In the case of `CCC1=C(C)C2=CCC=CC2=N1` it was 64 °C; in that of `CCOc1ccc(C(N)=O)cc1`, 209 °C; in that of `CCOC(=O)/C(C#N)=C/c1ccc(-c2ccc(Cl)cc2)o1`, 140 °C.
In the case of `O=C(c1ccccc1)c1ccc(F)cc1` it was 47 °C; in that of `O=C(Oc1ccccc1)c1c2ccccc2nc2ccccc12`, 188 to 192 °C; in that of `CCC(C)c1cc([N+](=O)[O-])cc([N+](=O)[O-])c1OC(=O)OC(C)C` (configuration not stated), 61.5 °C.
The molecule `CS(=O)(=O)c1nn(-c2ccccc2)c(N)c1C#N` returned a melting point of 190 °C.
The figure for `CC(/C=C(\C)c1ccc(-c2ccccc2)cc1)=NNc1ccc([N+](=O)[O-])cc1[N+](=O)[O-]` is 200 to 201 °C; for `C=CCNC(=S)Nc1sc2c(c1C(=O)OCC)CCCC2` it is 151 to 152 °C.
The figure for `NC(=O)c1c(F)ccc(Cl)c1F` is 135 °C; for `COC(=O)c1cnc(Cl)nc1` it is 76 to 80 °C; for `Oc1c(Cl)c(O)c(Cl)c(O)c1Cl` it is 136 °C.
In the case of `O=C(O)c1[nH]c2ccc([N+](=O)[O-])cc2c1-c1ccccc1` it was 290 °C; in that of `CC(=O)Oc1cccc2cccnc12`, 55 °C.
The molecule `Cc1cc(-c2ccccc2)n[nH]1` had a melting point of 127 to 128 °C.
The figure for `O=C(O)CSC(=S)SCC(=O)O` is 170 to 175 °C.
As for `c1ccc2c(c1)NC1(CCCCC1)O2`, the melting point came out at 243 °C.
Take `CC12CCCC1C1CCC3CC(=O)CCC3(C)C1CC2` (configuration not stated): the melting point is 102 °C.
The figure for `COc1cc(C)cc2c1C(=O)C2` is 93 °C; for `Brc1cccc(Oc2ccccc2)c1` it is < 20 °C.
The figure for `NS(=O)(=O)c1ccc(SCCO)c(F)c1` is 110 °C; for `CCCCCCCCCCCCCCCCCC(=O)OCC(COC(=O)CCCCCCCCCCCCCCCCC)OC(=O)CCCCCCCCCCCCCCCCC` it is 55 °C; for `FC(F)(Br)CBr` it is -61 °C.
The figure for `Fc1c(F)c(F)c(I)c(I)c1F` is 49 to 50 °C; for `NC(=S)c1ccc2occc2c1` it is 98.6 °C.
`O=C(CBr)c1ccc(Cl)c([N+](=O)[O-])c1` showed a melting point of 83 to 85 °C.
In the case of `c1ccc2c(c1)ccc1c3ccccc3ccc21` it was 258 °C; in that of `C[C@@H](OC(C)(C)C)[C@H](NC(=O)OCC1c2ccccc2-c2ccccc21)C(=O)O`, 131 to 134 °C.
The molecule `C[Si](C)(CCCC(=O)O)O[Si](C)(C)CCCC(=O)O` showed a melting point of 47 °C.
`NC(=O)NN=Cc1ccc([N+](=O)[O-])cc1` displayed a melting point of 217 °C.
Take `CC(=O)Oc1ccc(C2(c3ccc(OC(C)=O)cc3)Oc3ccccc3NC2=O)cc1`: the melting point came out at 190 °C.
In the case of `CCOP(=S)(NC(C)C)Oc1ccccc1C(=O)OC(C)C` (configuration not stated) it was -12 °C; in that of `O=[N+]([O-])c1ccccc1OCCBr`, 40 to 44 °C; in that of `FC(F)(F)c1ccc(Cl)c(Br)c1`, -23 to -22 °C.
The molecule `O=C=NS(=O)(=O)c1ccc(F)cc1` returned a melting point of 32 to 39 °C.
The figure for `COc1cc(N)ncn1` is 100 °C; for `CCCc1ccc(C(=O)CCC(=O)O)cc1` it is 117 to 119 °C; for `CCC=C(C)C` it is -135 °C.
In the case of `c1cnc2c(c1)OCCN2` it was 85 to 86 °C; in that of `CNC(=Nc1cc(C)ccn1)SC`, 78 to 81 °C; in that of `CCCOC(=O)C1=C(C)NC(=O)NC1c1ccccc1O` (configuration not stated), 189 °C.
In the case of `CC(C)(C)C=O` it was 6 °C; in that of `Cc1nn(C)c(C)c1C=O`, 81.5 °C.
In the case of `CN(C)c1ccc2cc3ccc(N(C)C)cc3nc2c1`, the melting point amounted to 165 °C.
In turn, `S=C(NCC(c1ccccc1)c1ccccc1)Nc1ccccc1` showed a melting point of 171 °C.
In the case of `NS(=O)(=O)c1ccc(N2C(=O)CC(c3ccccc3)C2=O)c(Cl)c1` (configuration not stated) it was 206 °C; in that of `O=[N+]([O-])C=Cc1ccccc1Cl`, 48 °C; in that of `COc1cccc(CNC(=O)c2[nH]c3ccccc3c2CCO)c1`, 151 °C.
Molecule `Cc1cc(C)c(CS(=O)(=O)Cc2c(C)cc(C)cc2C)c(C)c1` had a melting point of 297 to 300 °C.
In the case of `CCOC(=O)CNc1cc(NCC(=O)OCC)c(N)cc1N` it was > 360 °C; in that of `COc1ccc(C#N)cn1`, 94 to 95 °C.
The figure for `COc1ccc(C=Nn2c(C)cc(C)c(C#N)c2=O)cc1` is 249 to 250 °C.
The figure for `COc1cc(CCl)cc(OC)c1` is 46 to 48 °C; for `CCCCCCC(O)C1C2=C(CC(C(O)C3CC=CC(=O)O3)CC3=C(C(=O)OC3=O)C1O)C(O)OC2=O` (configuration not stated) it is 214 °C.
`CCOC(=O)CC(SP(=S)(OC)OC)C(=O)OCC` (configuration not stated): the melting point is 2.8 °C.
With `Brc1ccc2ncccc2c1`, the melting point was found to be 24 °C.
The figure for `COC(CC(C)=O)OC` is -82 °C; for `O=C(O)c1cc(O)cc(C(=O)O)c1` it is 293 °C.
The figure for `Cc1ccc(O)c(C(=O)c2ccccc2)c1` is 83 to 85 °C.
For the molecule `CC1OC1P(=O)(O)O` (configuration not stated), the melting point amounted to 94 °C.
In the case of `CC=CC1=C(C(=O)O)N2C(=O)C(NC(=O)C(N)c3ccc(O)cc3)C2SC1` (configuration not stated) it was 222 °C.
In the case of `CCN(CC)C(=O)C(C)Oc1cccc2ccccc12` (configuration not stated) it was 75 °C.
In turn, `O=C1CN=C(c2ccccc2)c2cc([N+](=O)[O-])ccc2N1` displayed a melting point of 225 °C.
The figure for `CC12CC1(C)C(=O)N(c1cc(Cl)cc(Cl)c1)C2=O` (configuration not stated) is 166 °C; for `CCOP(=S)(OCC)SCn1nnc2ccccc2c1=O` it is 53 °C.
The figure for `COC(=O)c1cc(C)nn1C(=O)OC` is 111 to 112 °C; for `CCCCCCCCCCCCCCCCCC(=O)OCCC` it is 28.9 °C.
The figure for `CCCCNC(=O)NNC(=O)OCC` is 97 °C.
For `CCCCCCCCCCCC(=O)OCc1ccccc1`, the melting point stood at 8.5 °C.
Take `O=C(C(=S)Nc1ccc(Cl)cc1)c1ccccc1`: the melting point fell in the range of 222 to 223 °C.
With `OCc1c(Br)c(Br)c(Br)c(Br)c1Br`, the melting point lay in the range of 264 to 265 °C.
The figure for `CCn1c2ccccc2c2cc(N)ccc21` is 99 °C.
